Among the data in patent US8420637B2, “Abnormal cannabidiols as agents for lowering intraocular pressure” (Allergan, Inc., priority 2006, dated 2013) are Efficacy values, retold here.

The subject of the assay is Laser-induced unilaterally ocular hypertensive Cynomolgus monkeys. The assay can be described thus: Intraocular pressure by applanation pneumatonometry in conscious animals. The format is in vivo. The arrangement: key: *: one star indicates no potency; ***: three stars indicates a very potent compound. The following applies: topical to one eye, dosed once, IOP measured over the course of 24 hours; female ocular hypertensive Cynomolgus monkeys. The procedure:
Intraocular pressure was measured by applanation pneumatonometry in conscious animals. The test compound was administered topically to one eye while vehicle was given to the fellow eye in a masked fashion. Laser-induced unilaterally ocular hypertensive Cynomolgus monkeys (females) were dosed once and the IOP was measured over the course of 24 hours.
The results are shown in the Table, below wherein the stars indicating the potency of the compound. That is, one star indicates no potency, three stars indicates a very potent compound.

In the case of `C=C(C)C1CCC(C)=CC1c1c(O)cc(O)cc1Cl` (stereo not drawn) [Example 5, 5-Chloro-4-(6-Isopropenyl-3-methylcyclohex-2-enyl)benzene-1,3-diol], the Efficacy result is recorded as “***”. Turning to `CC1CC(=O)CC(=O)N1C1CCCCC1` (stereo not drawn) [Example 20, 1-Cyclohexyl-6-methylpiperidine-2,4-dione], the Efficacy result is “***”. The result for `Oc1cc(O)c(C2CCCCC2)c(Cl)c1` [9 (b), 5-Chloro-4-cyclohexylbenzene-1,3-diol] reads “***”.
